Data reported in US20230040770A1, “HETEROCYCLIC COMPOUND AND USE THEREOF” (TAKEDA PHARMACEUTICAL COMPANY LIMITED, priority 2019, published 2023).

Biological target: T1, human orexin type 2 receptor (Homo sapiens, UniProt O43614)
T1 construct: expressed in transfected cells
T1 sequence (O43614 1-444): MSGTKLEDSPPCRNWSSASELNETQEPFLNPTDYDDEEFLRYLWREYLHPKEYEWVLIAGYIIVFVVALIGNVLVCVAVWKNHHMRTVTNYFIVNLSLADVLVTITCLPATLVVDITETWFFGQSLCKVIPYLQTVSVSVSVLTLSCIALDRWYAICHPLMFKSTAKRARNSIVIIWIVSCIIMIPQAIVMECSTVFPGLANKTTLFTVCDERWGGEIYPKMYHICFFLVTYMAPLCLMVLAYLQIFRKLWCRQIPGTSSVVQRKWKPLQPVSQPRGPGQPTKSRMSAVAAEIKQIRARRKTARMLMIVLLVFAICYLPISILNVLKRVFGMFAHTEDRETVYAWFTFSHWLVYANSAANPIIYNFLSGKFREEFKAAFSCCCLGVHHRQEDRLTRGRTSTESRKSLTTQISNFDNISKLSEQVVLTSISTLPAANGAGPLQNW
Test: Measurement of orexin type 2 receptor agonist activity (calcium indicator fluorescence, CHO cells forcibly expressing human OX2 receptor)
Type: cell-based
Conditions: compound at 3 μM; 0% = DMSO, 100% = orexin A (human) 10 nM
Description: To obtain a cell clone stably expressing human orexin type 2 receptor, human orexin type 2 receptor cDNA was inserted into pcDNA3.1(+) plasmid vector (Invitrogen), and a plasmid DNA for expression of human orexin type 2 receptor (pcDNA3.1(+)/hOX2R) was cloned. The plasmid DNA was introduced into CHO-dhfr cell by an electroporation method, and human orexin type 2 receptor expressing clone cells were obtained by limiting dilution method by using G418 drug resistance as a selection marker.
CHO cells forcibly expressing human OX2 receptor were seeded in each well of 384 well black transparent bottom plate (BD Falcon) at 7,500 cells/well, and cultured for one day in a 5% CO2 incubator at 37° C. After removal of the medium in the cell plate, assay buffer A containing a calcium indicator (HBSS (Thermo Fisher Scientific), 20 mM HEPES (Thermo Fisher Scientific), 0.1% BSA (Sigma-Aldrich), 2.5 μg/mL Fluo-4 AM (DOJINDO Chemical), 0.08% Pluronic F127 (DOJINDO Chemical), 1.25 mM probenecid (DOJINDO Chemical)) was added at 30 μL/well. The plate was stood for 30 min in a 5% CO2 incubator at 37° C., and further stood at room temperature for 30 min. A test compound prepared by diluting with assay buffer B (HBSS, 20 mM HEPES, 0.1% BSA) was added at 10 μL/well, and the fluorescence value was measured by FDSSμCELL (Hamamatsu Photonics K.K.) every one sec for 1 min, and thereafter every two sec for […]. The activity (%) of the test compound was calculated assuming that variation in the fluorescence value when DMSO was added instead of the test compound was 0%, and variation in the fluorescence value when orexin A (human) (PEPTIDE INSTITUTE, INC.) was added at the final concentration of 10 nM was 100%.

OX2R agonist activity (3 μM, %) [%] | SMILES
93 | CS(=O)(=O)N[C@@H]1[C@H](Cc2cccc(-c3ccccc3)c2F)N(C(=O)C23CC(C2)C3)CC1(F)F [Example 78, N-{(2S,3R)-1-(bicyclo[1.1.1]pentane-1-carbonyl)-4,4-difluoro-2-[(2-fluoro[1,1′-biphenyl]-3-yl)methyl]pyrrolidin-3-yl}methanesulfonamide]
102 | CS(=O)(=O)N[C@@H]1[C@H](Cc2cccc(-c3ccccc3)c2F)N(C(=O)C2CCO2)CC1(F)F (stereo partly drawn) [Example 79, N-[(2S,3R)-4,4-difluoro-2-[(2-fluoro[1,1′-biphenyl]-3-yl)methyl]-1-(oxetane-2-carbonyl)pyrrolidin-3-yl]methanesulfonamide]
95 | CS(=O)(=O)N[C@@H]1[C@H](Cc2cccc(-c3cccc(F)c3)c2F)N(C(=O)[C@H]2CCO2)CC1(F)F [Example 81, N-[(2S,3R)-2-[(2,3′-difluoro[1,1′-biphenyl]-3-yl)methyl]-4,4-difluoro-1-((2R)-oxetane-2-carbonyl)pyrrolidin-3-yl]methanesulfonamide]
91 | CC(C)C(=O)N1CC(F)(F)[C@H](NS(C)(=O)=O)[C@@H]1Cc1cccc(-c2cccc(F)c2)c1F [Example 98, N-[(2S,3R)-2-[(2,3′-difluoro[1,1′-biphenyl]-3-yl)methyl]-4,4-difluoro-1-(2-methylpropanoyl)pyrrolidin-3-yl]methanesulfonamide]
99 | CCS(=O)(=O)N[C@@H]1[C@H](Cc2cccc(-c3ccccc3)c2F)N(C(=O)[C@H]2CCCO2)CC1(F)F [Example 105, N-{(2S,3R)-4,4-difluoro-2-[(2-fluoro[1,1′-biphenyl]-3-yl)methyl]-1-[(2R)-oxolane-2-carbonyl]pyrrolidin-3-yl}ethanesulfonamide]
97 | CCS(=O)(=O)N[C@@H]1[C@H](Cc2cccc(-c3ccccc3)c2F)N(C(=O)C(C)C)CC1(F)F [Example 106, N-[(2S,3R)-4,4-difluoro-2-[(2-fluoro[1,1′-biphenyl]-3-yl)methyl]-1-(2-methylpropanoyl)pyrrolidin-3-yl]ethanesulfonamide]
89 | O=C(C1CCO1)N1CC(F)(F)[C@H](NS(=O)(=O)C2CC2)[C@@H]1Cc1cccc(-c2ccccc2)c1F (stereo partly drawn) [Example 124, N-[(2S,3R)-4,4-difluoro-2-[(2-fluoro[1,1′-biphenyl]-3-yl)methyl]-1-(oxetane-2-carbonyl)pyrrolidin-3-yl]cyclopropanesulfonamide]
94 | CC(C)C(=O)N1CC(F)(F)[C@H](NS(C)(=O)=O)[C@@H]1Cc1cccc(-c2cccc(F)c2F)c1 [Example 131, N-[(2S,3R)-2-[(2′,3′-difluoro[1,1′-biphenyl]-3-yl)methyl]-4,4-difluoro-1-(2-methylpropanoyl)pyrrolidin-3-yl]methanesulfonamide]
97 | CN(C)C(=O)N1CC(F)(F)[C@H](NS(=O)(=O)N(C)C)[C@@H]1Cc1cccc(-c2ccccc2)c1F [Example 138, (2S,3R)-3-[(dimethylsulfamoyl)amino]-4,4-difluoro-2-[(2-fluoro[1,1′-biphenyl]-3-yl)methyl]-N,N-dimethylpyrrolidine-1-carboxamide]
93 | CN(C)S(=O)(=O)N[C@@H]1[C@H](Cc2cccc(-c3ccccc3)c2F)N(C(=O)N2CCC2)CC1(F)F [Example 139, N′-{(2S,3R)-1-(azetidine-1-carbonyl)-4,4-difluoro-2-[(2-fluoro[1,1′-biphenyl]-3-yl)methyl]pyrrolidin-3-yl}-N,N-dimethylsulfuric diamine]
99 | CN(C)S(=O)(=O)N[C@@H]1[C@H](Cc2cccc(-c3ccccc3)c2F)N(C(=O)C2(O)CCC2)CC1(F)F [Example 145, N′-[(2S,3R)-4,4-difluoro-2-[(2-fluoro[1,1′-biphenyl]-3-yl)methyl]-1-(1-hydroxycyclobutane-1-carbonyl)pyrrolidin-3-yl]-N,N-dimethylsulfuric diamide]

The remaining lines, values behind:

SMILES | OX2R agonist activity (3 μM, %) [%]
CCS(=O)(=O)N[C@@H]1[C@H](Cc2cccc(-c3cccc(F)c3)c2)N(C(=O)[C@H]2CCCO2)CC1(F)F [Example 88, N-{(2S,3R)-4,4-difluoro-2-[(3′-fluoro[1,1′-biphenyl]-3-yl)methyl]-1-[(2R)-oxolane-2-carbonyl]pyrrolidin-3-yl}ethanesulfonamide] | 98
CS(=O)(=O)N[C@@H]1[C@H](Cc2cccc(-c3cc(F)cc(F)c3)c2F)N(C(=O)[C@@H]2CCO2)CC1(F)F [Example 92, N-{(2S,3R)-4,4-difluoro-1-((2S)-oxetane-2-carbonyl)-2-[(2,3′,5′-trifluoro[1,1′-biphenyl]-3-yl)methyl]pyrrolidin-3-yl}methanesulfonamide] | 99
CCS(=O)(=O)N[C@@H]1[C@H](Cc2cccc(-c3cccc(F)c3)c2F)N(C(=O)C23CC(C2)C3)CC1(F)F [Example 93, N-{(2S,3R)-1-(bicyclo[1.1.1]pentane-1-carbonyl)-2-[(2,3′-difluoro[1,1′-biphenyl]-3-yl)methyl]-4,4-difluoropyrrolidin-3-yl}ethanesulfonamide] | 98
CCS(=O)(=O)N[C@@H]1[C@H](Cc2cccc(-c3cccc(F)c3)c2)N(C(=O)C(C)C)CC1(F)F [Example 97, N-[(2S,3R)-4,4-difluoro-2-[(3′-fluoro[1,1′-biphenyl]-3-yl)methyl]-1-(2-methylpropanoyl)pyrrolidin-3-yl]ethanesulfonamide] | 90
CCS(=O)(=O)N[C@@H]1[C@H](Cc2cccc(-c3cc(F)cc(F)c3)c2)N(C(=O)C(C)C)CC1(F)F [Example 116, N-[(2S,3R)-2-[(3′,5′-difluoro[1,1′-biphenyl]-3-yl)methyl]-4,4-difluoro-1-(2-methylpropanoyl)pyrrolidin-3-yl]ethanesulfonamide] | 86
CS(=O)(=O)N[C@@H]1[C@H](Cc2cccc(-c3cccc(F)c3F)c2F)N(C(=O)[C@H]2CCO2)CC1(F)F [Example 121, N-{(2S,3R)-4,4-difluoro-1-((2R)-oxetane-2-carbonyl)-2-[(2,2′,3′-trifluoro[1,1′-biphenyl]-3-yl)methyl]pyrrolidin-3-yl}methanesulfonamide] | 94
CS(=O)(=O)N[C@@H]1[C@H](Cc2cccc(-c3cc(F)ccc3F)c2F)N(C(=O)[C@H]2CCO2)CC1(F)F [Example 122, N-{(2S,3R)-4,4-difluoro-1-((2R)-oxetane-2-carbonyl)-2-[(2,2′,5′-trifluoro[1,1′-biphenyl-]-3-yl)methyl]pyrrolidin-3-yl}methanesulfonamide] | 89
O=C(C1CCO1)N1CC(F)(F)[C@H](NS(=O)(=O)C2CC2)[C@@H]1Cc1cccc(-c2cccc(F)c2)c1F (stereo partly drawn) [Example 129, N-[(2S,3R)-2-[(2,3′-difluoro[1,1′-biphenyl]-3-yl)methyl]-4,4-difluoro-1-(oxetane-2-carbonyl)pyrrolidin-3-yl]cyclopropanesulfonamide] | 92
CS(=O)(=O)N[C@@H]1[C@H](Cc2cccc(-c3cccc(F)c3F)c2F)N(C(=O)[C@@H]2CCO2)CC1(F)F [Example 133, N-{(2S,3R)-4,4-difluoro-1-((2S)-oxetane-2-carbonyl)-2-[(2,2′,3′-trifluoro[1,1′-biphenyl]-3-yl)methyl]pyrrolidin-3-yl}methanesulfonamide] | 96
CCS(=O)(=O)N[C@@H]1[C@H](Cc2cccc(-c3cc(F)ccc3F)c2F)N(C(=O)C(C)C)CC1(F)F [Example 147, N-{(2S,3R)-4,4-difluoro-1-(2-methylpropanoyl)-2-[(2,2′,5′-trifluoro[1,1′-biphenyl]-3-yl)methyl]pyrrolidin-3-yl}ethanesulfonamide] | 91
O=C(C1CCO1)N1CC(F)(F)[C@H](NS(=O)(=O)C2CC2)[C@@H]1Cc1cccc(-c2cc(F)cc(F)c2)c1F (stereo partly drawn) [Example 162, N-{(2S,3R)-4,4-difluoro-1-(oxetane-2-carbonyl)-2-[(2,3′,5′-trifluoro[1,1′-biphenyl]-3-yl)methyl]pyrrolidin-3-yl}cyclopropanesulfonamide] | 92
